Legend:
GST tagged PIP4KtypeIIA = target: T1, GST tagged PIP4KtypeIIA (Homo sapiens, UniProt P48426); experiment: ADP-glo kinase assay PIP4K 2A (PIP4KtypeIIA inhibition assay); format: biochemical; settings: Table 3; compounds listed under IC50 range headings; 10 uM ATP, 0.5 nM PIP4KIIA
T1 construct: made in house; host or cells: E. coli
T1 sequence (P48426 1-406): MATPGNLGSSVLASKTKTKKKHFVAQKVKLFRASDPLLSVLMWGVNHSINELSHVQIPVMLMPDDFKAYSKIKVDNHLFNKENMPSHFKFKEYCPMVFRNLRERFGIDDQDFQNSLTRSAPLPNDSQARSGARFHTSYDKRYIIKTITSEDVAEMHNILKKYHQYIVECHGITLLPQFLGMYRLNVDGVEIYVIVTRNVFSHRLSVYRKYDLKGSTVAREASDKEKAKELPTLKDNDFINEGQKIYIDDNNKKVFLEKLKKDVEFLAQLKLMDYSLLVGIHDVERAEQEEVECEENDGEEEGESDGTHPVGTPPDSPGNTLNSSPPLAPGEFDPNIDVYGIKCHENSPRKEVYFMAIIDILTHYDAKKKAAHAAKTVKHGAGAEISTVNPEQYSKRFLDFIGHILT
Procedure, shortened: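 E. coli-expressed GST-PIP4KtypeIIA (0.5 nM final) was preincubated 1 h at 27 °C with compound (up to 4.8 μM, 5% DMSO) in PI5P/DOPE lipid in 50 mM HEPES pH 7.3 with 10 mM MgCl2. The reaction was started with 10 μM ATP (final) and run 1 h. ADP was read by ADP-Glo luminescence via a calibration curve, and IC50 was taken from % residual activity.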

GST tagged PIP4KtypeIIB = target: T2, GST tagged PIP4KtypeIIB (Homo sapiens, UniProt P78356); experiment: Trans-FI P kinase assay PIP4K2B (PIP4KtypeIIB inhibition assay); format: biochemical; settings: Table 4; compounds listed under IC50 range headings; 100 uM GTP, 5 nM PIP4KIIB; read-out: Trans-FI P kinase assays: PIP4K2B IC50
T2 construct: made in house; host or cells: E. coli
T2 sequence (P78356 1-416): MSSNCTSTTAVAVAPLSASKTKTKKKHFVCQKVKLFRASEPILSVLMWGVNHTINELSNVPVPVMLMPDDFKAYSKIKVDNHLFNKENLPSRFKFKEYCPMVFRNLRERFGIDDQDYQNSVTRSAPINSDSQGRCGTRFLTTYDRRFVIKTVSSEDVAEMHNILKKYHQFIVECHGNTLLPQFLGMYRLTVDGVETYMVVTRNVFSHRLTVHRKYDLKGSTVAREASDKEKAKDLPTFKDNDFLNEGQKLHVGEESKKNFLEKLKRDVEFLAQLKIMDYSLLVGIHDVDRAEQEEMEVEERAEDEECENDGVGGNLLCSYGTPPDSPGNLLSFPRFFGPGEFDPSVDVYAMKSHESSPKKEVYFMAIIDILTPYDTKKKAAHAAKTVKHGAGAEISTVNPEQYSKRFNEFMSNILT
Procedure, shortened: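 Purified GST-PIP4KIIB (5 nM final), 1 h preincubation with compound at 27 C, then 2 h reaction with 100 uM GTP and 80 uM PI5P plus DOPE carrier lipid in pH 7.3 HEPES/MgCl2/Triton buffer with 5% DMSO. GDP read by Transcreener FI fluorescence against a calibration curve; IC50 from % no-inhibitor activity vs log concentration.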

[1] = target: T3, PIP4K2A (full length protein, SignalChem) (Homo sapiens, UniProt P48426); experiment: Kinase Assay PIP4K2 A (Sprint); ADP-Glo biochemical assay; settings: Table 2; compounds listed under IC50 range headings
T3 construct: 4 nM PIP4K2A (full length protein, SignalChem); purchased SignalChem
T3 sequence (P48426 1-406): T1 sequence (P48426 1-406)
Procedure, shortened: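 Compounds (10-point, 3-fold dilutions) were pre-incubated 15 min at RT with an enzyme/substrate mix of 4 nM full-length PIP4K2A and 100 μM PI(5)P diC8 in 20 mM MOPS pH 7.2, 25 mM MgCl2, 0.005% Tween 20. A 60 μM ATP solution was added, reaction 1 h RT; ADP read by ADP-Glo luminescence, IC50 fitted from % inhibition vs DMSO.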

## CC(O)c1cnc2[nH]cc(-c3cncc(-c4ccc(N5CCCC5=O)cc4)c3)c2c1 (stereo not drawn) [Example 48, 1-(4-(5-(5-(1-hydroxyethyl)-1H-pyrrolo[2,3-b]pyridin-3-yl)pyridin-3-yl)phenyl)pyrrolidin-2-one]
GST tagged PIP4KtypeIIA
  IC50: 100 to 1000 nM
GST tagged PIP4KtypeIIB
  IC50: 10 to 100 nM
[1]
  IC50: 5 to 100 nM

## COC(=O)c1cc2c(-c3cncc(-c4ccc(N5CCCC5=O)cc4C)c3)ccnc2[nH]1 [Example 171, methyl 4-(5-(2-methyl-4-(2-oxopyrrolidin-1-yl)phenyl)pyridin-3-yl)-1H-pyrrolo[2,3-b]pyridine-2-carboxylate]
GST tagged PIP4KtypeIIA
  IC50: 10 to 100 nM
GST tagged PIP4KtypeIIB
  IC50: 10 to 100 nM
[1]
  IC50: 5 to 100 nM

## Cn1cc(-c2cncc(-c3ccc(N4CCCC4=O)cc3)c2)c2cc(N3CCNCC3)cnc21 [Example 56, 1-(4-(5-(1-methyl-5-(piperazin-1-yl)-1H-pyrrolo[2,3-b]pyridin-3-yl)pyridin-3-yl)phenyl)pyrrolidin-2-one]
GST tagged PIP4KtypeIIA
  IC50: 1000 to 2500 nM
GST tagged PIP4KtypeIIB
  IC50: 2500 to 5000 nM
[1]
  IC50: 100 to 1000 nM

## O=C1CCCN1c1ccc(-c2cncc(-c3ccnc4c3cnn4CCO)c2)cc1 [Example 44, 1-(4-(5-(1-(2-hydroxyethyl)-1H-pyrazolo[3,4-b]pyridin-4-yl)pyridin-3-yl)phenyl)pyrrolidin-2-one]
GST tagged PIP4KtypeIIA
  IC50: 100 to 1000 nM
GST tagged PIP4KtypeIIB
  IC50: 100 to 1000 nM
[1]
  IC50: 100 to 1000 nM

## Cc1cnc2[nH]ccc2c1-c1cncc(-c2ccc(N3CCCC3=O)cc2)c1 [Example 35, 1-(4-(5-(5-methyl-1H-pyrrolo[2,3-b]pyridin-4-yl)pyridin-3-yl)phenyl)pyrrolidin-2-one]
GST tagged PIP4KtypeIIA
  IC50: 1000 to 2500 nM
GST tagged PIP4KtypeIIB
  IC50: 100 to 1000 nM
[1]
  IC50: 100 to 1000 nM

## Cn1cc(-c2cncnc2)c2cc(-c3cncc(-c4ccc(N5CCCC5=O)cc4)c3)cnc21 [Example 176, 1-(4-(5-(1-methyl-3-(pyrimidin-5-yl)-1H-pyrrolo[2,3-b]pyridin-5-yl)pyridin-3-yl)phenyl)pyrrolidin-2-one]
GST tagged PIP4KtypeIIA
  IC50: 100 to 1000 nM
GST tagged PIP4KtypeIIB
  IC50: 1000 to 2500 nM
[1]
  IC50: 5 to 100 nM

## O=C1NCc2c(-c3cncc(-c4ccc(N5CCCC5=O)cc4)c3)ccnc21 [Example 78, 4-[5-[4-(2-Oxopyrrolidin-1-yl)phenyl]-3-pyridyl]-5,6-dihydropyrrolo[3,4-b]pyridin-7-one]
GST tagged PIP4KtypeIIA
  IC50: 100 to 1000 nM
GST tagged PIP4KtypeIIB
  IC50: 100 to 1000 nM
[1]
  IC50: 5 to 100 nM

## CN(C)C(=O)c1ccc(-c2cc(-c3ccnc4[nH]c(C(=O)NCc5ccncc5)cc34)cnc2N)nc1 [Example 135, 4-(2′-amino-5-(dimethylcarbamoyl)-[2,3′-bipyridin]-5′-yl)-N-(pyridin-4-ylmethyl)-1H-pyrrolo[2,3-b]pyridine-2-carboxamide]
GST tagged PIP4KtypeIIA
  IC50: 100 to 1000 nM
GST tagged PIP4KtypeIIB
  IC50: 10 to 100 nM
[1]
  IC50: 5 to 100 nM

## COCCNC(=O)c1cc2c(-c3cnc(N)c(-c4ccc(N5CCCC5=O)cc4)c3)ccnc2o1 [Example 90, 4-(6-amino-5-(4-(2-oxopyrrolidin-1-yl)phenyl)pyridin-3-yl)-N-(2-methoxyethyl)furo[2,3-b]pyridine-2-carboxamide]
GST tagged PIP4KtypeIIA
  IC50: 10 to 100 nM
GST tagged PIP4KtypeIIB
  IC50: 1 to 10 nM
[1]
  IC50: 5 to 100 nM

## CN(C)C(=O)c1ccc(-c2cncc(-c3ccnc4ccncc34)c2)cc1 [Example 7, 4-(5-(1,6-naphthyridin-4-yl)pyridin-3-yl)-N,N-dimethylbenzamide]
GST tagged PIP4KtypeIIA
  IC50: > 5000 nM
GST tagged PIP4KtypeIIB
  IC50: > 5000 nM
[1]
  IC50: 2500 to 5000 nM

## CN(C)C(=O)c1ccc(-c2cc(-c3ccnc4[nH]c(C(=O)NCc5cccnc5)cc34)cnc2N)nc1 [Example 136, 4-(2′-amino-5-(dimethylcarbamoyl)-[2,3′-bipyridin]-5′-yl)-N-(pyridin-3-ylmethyl)-1H-pyrrolo[2,3-b]pyridine-2-carboxamide]
GST tagged PIP4KtypeIIA
  IC50: 100 to 1000 nM
GST tagged PIP4KtypeIIB
  IC50: 10 to 100 nM
[1]
  IC50: 5 to 100 nM

## CN(C)C(=O)c1ccc(-c2cc(-c3ccnc4[nH]c(C(=O)NCC(F)(F)F)cc34)cnc2N)nc1 [Example 138, 4-(2′-amino-5-(dimethylcarbamoyl)-[2,3′-bipyridin]-5′-yl)-N-(2,2,2-trifluoroethyl)-1H-pyrrolo[2,3-b]pyridine-2-carboxamide]
GST tagged PIP4KtypeIIA
  IC50: 100 to 1000 nM
GST tagged PIP4KtypeIIB
  IC50: 10 to 100 nM
[1]
  IC50: 100 to 1000 nM

## CNC(=O)c1cnc2[nH]cc(-c3cncc(-c4ccc(N5CCCC5=O)cc4)c3)c2c1 [Example 71, N-methyl-3-(5-(4-(2-oxopyrrolidin-1-yl)phenyl)pyridin-3-yl)-1H-pyrrolo[2,3-b]pyridine-5-carboxamide]
GST tagged PIP4KtypeIIA
  IC50: 100 to 1000 nM
GST tagged PIP4KtypeIIB
  IC50: 10 to 100 nM
[1]
  IC50: 5 to 100 nM

## COC(=O)c1cc2c(-c3cncc(-c4ccc(N5CCCC5=O)cc4)c3)ccnc2o1 [Example 165, methyl 4-(5-(4-(2-oxopyrrolidin-1-yl)phenyl)pyridin-3-yl)furo[2,3-b]pyridine-2-carboxylate]
GST tagged PIP4KtypeIIA
  IC50: 10 to 100 nM
GST tagged PIP4KtypeIIB
  IC50: 10 to 100 nM
[1]
  IC50: 5 to 100 nM

## COC(=O)c1cc2c(-c3cncc(-c4ccc(N5CCCC5=O)cc4)c3C)ccnc2[nH]1 [Example 175, methyl 4-(4-methyl-5-(4-(2-oxopyrrolidin-1-yl)phenyl)pyridin-3-yl)-1H-pyrrolo[2,3-b]pyridine-2-carboxylate]
GST tagged PIP4KtypeIIA
  IC50: 10 to 100 nM
GST tagged PIP4KtypeIIB
  IC50: 10 to 100 nM
[1]
  IC50: 5 to 100 nM

## O=C1CCCN1c1ccc(-c2cncc(-c3c[nH]c4ncccc34)c2)cc1 [Example 28, 1-(4-(5-(1H-pyrrolo[2,3-b]pyridin-3-yl)pyridin-3-yl)phenyl)pyrrolidin-2-one]
GST tagged PIP4KtypeIIA
  IC50: 100 to 1000 nM
GST tagged PIP4KtypeIIB
  IC50: 100 to 1000 nM
[1]
  IC50: 5 to 100 nM

## Cc1nc(-c2cncc(-c3ccc(N4CCCC4=O)cc3)c2)c2cn[nH]c2n1 [Example 225, 1-(4-(5-(6-methyl-2H-pyrazolo[3,4-d]pyrimidin-4-yl)pyridin-3-yl)phenyl)pyrrolidin-2-one]
GST tagged PIP4KtypeIIA
  IC50: 100 to 1000 nM
GST tagged PIP4KtypeIIB
  IC50: 100 to 1000 nM
[1]
  IC50: 100 to 1000 nM

## O=C(NCc1ccc2c(c1)COB2O)c1cc2c(-c3cncc(-c4ccc(N5CCCC5=O)cc4)c3)ccnc2[nH]1 [Example 276, N-((1-hydroxy-1,3-dihydrobenzo[c][1,2]oxaborol-5-yl)methyl)-4-(5-(4-(2-oxopyrrolidin-1-yl)phenyl)pyridin-3-yl)-1H-pyrrolo[2,3-b]pyridine-2-carboxamide]
GST tagged PIP4KtypeIIA
  IC50: 100 to 1000 nM
GST tagged PIP4KtypeIIB
  IC50: 10 to 100 nM
[1]
  IC50: 5 to 100 nM

## O=C1CCCN1c1ccc(-c2cncc(-c3c[nH]c4ncc(Cl)cc34)c2)cc1 [Example 27, 1-(4-(5-(5-chloro-1H-pyrrolo[2,3-b]pyridin-3-yl)pyridin-3-yl)phenyl)pyrrolidin-2-one]
GST tagged PIP4KtypeIIA
  IC50: 100 to 1000 nM
GST tagged PIP4KtypeIIB
  IC50: 100 to 1000 nM
[1]
  IC50: 5 to 100 nM

## COc1cc(-c2cncc(-c3ccc(N4CCCC4=O)cc3)c2)c2c[nH]nc2n1 [Example 257, 1-(4-(5-(6-methoxy-2H-pyrazolo[3,4-b]pyridin-4-yl)pyridin-3-yl)phenyl)pyrrolidin-2-one]
GST tagged PIP4KtypeIIA
  IC50: 100 to 1000 nM
GST tagged PIP4KtypeIIB
  IC50: 100 to 1000 nM
[1]
  IC50: 100 to 1000 nM

## CN(C)C(=O)c1ccc(-c2cncc(-c3ccnc(C(=O)N(C)C)c3)c2)cc1 [Example 9, 5-(4-(dimethylcarbamoyl)phenyl)-N,N-dimethyl-[3,4′-bipyridine]-2′-carboxamide]
GST tagged PIP4KtypeIIA
  IC50: > 5000 nM
GST tagged PIP4KtypeIIB
  IC50: > 5000 nM
[1]
  IC50: < 5000 nM

## Cn1cc(-c2cncc(-c3ccc(N4CCCC4=O)cc3)c2)c2cc(N3CCCC3=O)cnc21 [Example 77, 1-(1-methyl-3-(5-(4-(2-oxopyrrolidin-1-yl)phenyl)pyridin-3-yl)-1H-pyrrolo[2,3-b]pyridin-5-yl)pyrrolidin-2-one]
GST tagged PIP4KtypeIIA
  IC50: 100 to 1000 nM
GST tagged PIP4KtypeIIB
  IC50: 100 to 1000 nM
[1]
  IC50: 5 to 100 nM

## CN(C)C(=O)c1ccc(-c2cc(-c3ccnc(CNC(=O)CCc4cccc(NC(=O)OC(C)(C)C)c4)c3)cnc2N)nc1 [Example 193, tert-butyl (3-(3-(((2′-amino-5-(dimethylcarbamoyl)-[2,3′:5′,4″-terpyridin]-2″-yl)methyl)amino)-3-oxopropyl)phenyl)carbamate]
GST tagged PIP4KtypeIIA
  IC50: > 5000 nM
GST tagged PIP4KtypeIIB
  IC50: 2500 to 5000 nM
[1]
  IC50: 1000 to 2500 nM
